Measurements as given in patent publication US9598677B2, “Use of human biliverdin reductase and fragments thereof for the treatment of protein kinase C-delta and ERK related conditions” (University of Rochester, priority 2009, dated 2017).
Ends that are not written are not given here. * marks the point of attachment. Myristoyl = CCCCCCCCCCCCCC(=O)*

Key:
[1] = system: recombinant human PKC-δ; assay: PKC-δ kinase assay in vitro (p81 filter / autoradiography); assay type: biochemical
Description: Measurement of PKC-δ activity: In vitro kinase activity assays were performed with active recombinant human PKC-δ kinase (as a GST fusion protein). PKC-δ assay in vitro was performed using 5 ng purified enzyme in a 50 μl assay containing 50 mM HEPES pH 7.4, 10 mM MgCl2, 0.2 mM DTT, sonicated lipid activators (0.5 μg phosphatidylserine and 0.05 μg diacylglycerol) or lipid activators plus PMA (as indicated in appropriate experiments) and PKC-δ substrates. The reaction was started by the addition of 50 μM ATP labeled with 5 μCi [γ-^32P]-ATP. Incubation was performed for 15 min at 30° C., unless otherwise stated. The reaction was terminated on ice, either by the addition of Laemmli buffer followed by SDS-PAGE, transferred to PVDF membrane, and autoradiography, or by the addition of 1 volume 10% phosphoric acid for p81 transfer as described below. For autophosphorylation of PKC-δ 20 μM ATP was used to start the 40-min reaction.
When hBVR or its mutants were tested for their effect on PKC-δ activity, they were pre-incubated for 5 min at room temperature with the PKC prior to substrate addition. The hBVR-derived peptides were used at concentrations indicated in appropriate figures.
When hBVR or its mutants were assayed as the sole substrates for PKC, the incubation conditions were as described above and the incubation was for 40 min at 30° C. unless specified otherwise. The reaction was terminated by the addition of Laemmli buffer, and the reaction products were detected by SDS-PAGE, transfer to PVDF membrane, and autoradiography.
Measurement of PKC-δ activity: PKC-δ assay in vitro was performed using 0.1 ng/μl purified recombinant human PKC-δ kinase with reaction conditions specified by the manufacturer. Effector molecules such as hBVR or peptides were added 5 min prior to substrate. The reaction was started by the addition of [γ-^32P]-ATP (Lerner-Marmarosh et al., “Human Biliverdin Reductase: A Member of the Insulin Receptor Substrate Family with Serine/Threonine/Tyrosine Kinase Activity,” Proc. Natl. Acad. Sci. U.S.A. 102(20):7109-7114 (2005), which is hereby incorporated by reference in its entirety). Reaction products were detected either by gel electrophoresis and autoradiography or by the p81 filter assay. PKC-δ activity on agarose beads was also measured. Cell lysates were immunoprecipitated with anti-PKC-δ antibody followed by protein A/G agarose. The immunoprecipitates were used in kinase reactions containing 50 μM PKC-δ specific peptide substrate as above; incorporation of ^32P was measured by p81 method.

[2] = target: PKC-δ (Homo sapiens, UniProt Q05655); assay: PMA-induced PKC-δ membrane translocation, confocal microscopy; assay type: cell-based; parameters: inserting the open reading frame of PKC-δ into the plasmid pDsRed2-C1; expressed in transfected cells; host or cells: 293A; conditions: 10 μM myristoylated peptide, PMA 15 min, FIG. 5E
Sequence of PKC-δ (Homo sapiens, UniProt Q05655) (Q05655 whole entry, the tested form may be a part): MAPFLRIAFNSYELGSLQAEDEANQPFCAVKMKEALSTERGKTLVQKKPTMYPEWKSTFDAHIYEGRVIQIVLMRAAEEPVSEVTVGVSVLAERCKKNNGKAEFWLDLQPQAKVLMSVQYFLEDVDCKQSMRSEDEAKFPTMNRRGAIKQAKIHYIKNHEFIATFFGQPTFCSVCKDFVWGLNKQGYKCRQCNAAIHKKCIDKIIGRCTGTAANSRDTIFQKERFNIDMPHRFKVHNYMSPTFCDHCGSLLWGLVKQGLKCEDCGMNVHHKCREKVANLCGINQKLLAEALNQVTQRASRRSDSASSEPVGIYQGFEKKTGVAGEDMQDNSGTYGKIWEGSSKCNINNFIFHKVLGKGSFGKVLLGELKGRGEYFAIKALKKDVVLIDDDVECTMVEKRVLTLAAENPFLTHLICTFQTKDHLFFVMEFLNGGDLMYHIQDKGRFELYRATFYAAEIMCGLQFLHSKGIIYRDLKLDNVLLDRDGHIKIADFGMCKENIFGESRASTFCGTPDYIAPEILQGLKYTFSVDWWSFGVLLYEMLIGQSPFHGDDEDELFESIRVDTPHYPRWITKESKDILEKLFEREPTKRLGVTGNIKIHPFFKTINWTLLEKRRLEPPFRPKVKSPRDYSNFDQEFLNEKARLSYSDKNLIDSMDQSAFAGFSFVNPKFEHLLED
Description: Confocal microscopy: Experimental protocols were based on those described by Edwards et al., “Carboxyl-Terminal Phosphorylation Regulates the Function and Subcellular Localization of Protein Kinase C betall,” J. Biol. Chem. 274:6461-6468 (1999), which is hereby incorporated by reference in its entirety. 293A cells were grown in a chamber slide system (Nalge-Nunc International Corp., Naperville, Ill.). Cells were transfected with pEGFP-hBVR and/or the plasmid expressing Ds2-Red-PKC-δ fusion protein. After a 24 h starvation period, cells were fixed for 10 min in 4% Para-formaldehyde in PBS and permeabilized with 1% Triton X-100 in PBS. The cells were mounted with Vectashield (Vector Laboratories, Inc. Burlingame, Calif.), containing DAPI to visualize the nuclei. Non-transfected cells were permeabilized as above, treated with 1:150 dilution of polyclonal anti-PKC-δ antibodies, washed, blocked, and then treated with polyclonal anti-hBVR antibodies. The PBS-washed cells were then treated with Rhodamine-red-conjugated donkey anti-rabbit IgG antibodies (Jackson ImmunoResearch, West Grove, Pa.) for 30 min, followed by mounting. A Leica TCS SP (model DMRE) confocal microscope was used (Maines et al., “Human Biliverdin Reductase: A Previously Unknown Activator of Protein Kinase C-βII,” J. Biol. Chem. 282:8110-8122 (2007), which is hereby incorporated by reference in its entirety).

[3] = target: T1, PKC-δ (Homo sapiens, UniProt Q05655, DEL151-160); assay: PKC-δ activity assay in situ in 293A cells; assay type: cell-based; conditions: myristoylated peptide, FIG. 5C
T1 construct: The human PKC-δ open reading frame was also cloned in the same vectors; expressed in transfected cells; host or cells: HEK 293A
T1 sequence (Q05655 with tags, fused parts or gaps DEL151-160): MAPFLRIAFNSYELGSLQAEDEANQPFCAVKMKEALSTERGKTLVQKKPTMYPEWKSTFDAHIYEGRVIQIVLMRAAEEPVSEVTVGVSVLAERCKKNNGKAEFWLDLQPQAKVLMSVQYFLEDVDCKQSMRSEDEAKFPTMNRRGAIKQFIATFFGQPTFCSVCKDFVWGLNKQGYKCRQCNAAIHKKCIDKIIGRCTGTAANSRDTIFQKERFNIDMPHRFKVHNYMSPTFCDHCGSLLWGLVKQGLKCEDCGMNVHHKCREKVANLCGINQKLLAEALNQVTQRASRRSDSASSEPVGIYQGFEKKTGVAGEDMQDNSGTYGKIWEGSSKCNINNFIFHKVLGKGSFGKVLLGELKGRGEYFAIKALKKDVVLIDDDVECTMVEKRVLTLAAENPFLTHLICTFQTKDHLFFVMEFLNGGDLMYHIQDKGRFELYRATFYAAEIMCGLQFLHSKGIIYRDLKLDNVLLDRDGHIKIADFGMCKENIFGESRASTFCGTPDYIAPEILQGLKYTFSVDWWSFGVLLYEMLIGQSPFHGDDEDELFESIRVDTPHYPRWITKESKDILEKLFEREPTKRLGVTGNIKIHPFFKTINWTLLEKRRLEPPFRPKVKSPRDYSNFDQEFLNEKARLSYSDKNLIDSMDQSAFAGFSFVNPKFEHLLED
Description: The PKC-δ activity assay in situ was performed by a modification of procedures detailed by Williams and Schrier (Williams et al., Glucose-Induced Protein Kinase C Activity Regulates Arachidonic Acid Release and Eicosanoid Production by Cultured Glomerular Mesangial Cells,” J. Clin. Invest. 92:2889-2896 (1993), which is hereby incorporated by reference in its entirety). Cells were seeded into 48-well plates and transfected with 0.1 μg/well pcDNA3-hBVR. After 24 h, the medium was replaced with a starvation medium (0.1% serum) and incubation continued for another 24 h to synchronize cells. In some wells, PKC inhibitor Rottlerin (20 μM) was added 30 min before addition of PMA (100 nM) for 15 min. In some wells, hBVR-derived peptides were introduced to cells in their myristoylated form. Cells were washed with medium and incubated for 10 min at 30° C. in 50 μl of kinase assay buffer (137 mM NaCl, 5.4 mM KCl, 10 mM MgCl2, 0.3 mM Na2HPO4, 0.4 mM KH2PO4, 25 mM β-glycerophosphate, 5.5 mM D-glucose, 5 mM EGTA, 1 mM CaCl2, 20 mM HEPES (pH 7.2), 50 μg/ml digitonin, 120 μg/ml of PKC-δ specific substrate (ARRKRKGSFFGG; SEQ ID NO: 52) and 100 μM ATP labeled with 10 μCi/ml [γ-^32P]-ATP). The reaction was stopped with the addition of 25 μl of ice-cold 30% (wt/vol) TCA. The TCA-soluble fraction samples were transferred to p81 phospho-cellulose filters. […]

inhibition of phosphorylation of the commercial substrate ([1]; 50 μM substrate/10 μM inhibitor, FIG. 5A): More than 90%
sensitivity of PKC-δ activity to the inhibitory peptide ([1]; MBP substrate, increasing peptide concentrations, FIG. 5D): most sensitive
PKC-δ translocation to the cell membrane upon PMA [2]: effectively inhibited
activity of constitutively active PKC-δ in cells [3]: effective inhibitor
Sequence: KRNRYLSF (Myristoyl-KRNRYLSF)
